# Results from US11773094B2, “Farnesoid X receptor agonists and uses thereof” (Metacrine, Inc., priority 2018, dated 2023).
# pEC50: −log10 of the molar value.
# Target: T1, hFXR (Homo sapiens, UniProt Q96RI1)
# T1 construct: expressed in transfected cells; host or cells: CV-1 cells
# T1 sequence (Q96RI1 1-486): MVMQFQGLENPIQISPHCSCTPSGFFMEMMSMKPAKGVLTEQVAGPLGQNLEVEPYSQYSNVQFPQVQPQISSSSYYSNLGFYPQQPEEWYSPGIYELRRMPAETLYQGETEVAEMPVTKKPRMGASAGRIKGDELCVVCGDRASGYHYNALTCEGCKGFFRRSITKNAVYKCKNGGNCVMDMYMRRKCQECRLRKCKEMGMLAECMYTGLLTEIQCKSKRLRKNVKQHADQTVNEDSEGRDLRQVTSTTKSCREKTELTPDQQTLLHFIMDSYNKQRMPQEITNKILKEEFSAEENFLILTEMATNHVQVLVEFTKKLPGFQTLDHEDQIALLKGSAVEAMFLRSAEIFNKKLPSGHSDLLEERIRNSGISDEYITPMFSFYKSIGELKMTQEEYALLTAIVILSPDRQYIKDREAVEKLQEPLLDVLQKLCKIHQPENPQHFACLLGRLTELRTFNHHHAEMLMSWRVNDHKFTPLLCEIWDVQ
# T1 sequence (P19793 1-462 partner): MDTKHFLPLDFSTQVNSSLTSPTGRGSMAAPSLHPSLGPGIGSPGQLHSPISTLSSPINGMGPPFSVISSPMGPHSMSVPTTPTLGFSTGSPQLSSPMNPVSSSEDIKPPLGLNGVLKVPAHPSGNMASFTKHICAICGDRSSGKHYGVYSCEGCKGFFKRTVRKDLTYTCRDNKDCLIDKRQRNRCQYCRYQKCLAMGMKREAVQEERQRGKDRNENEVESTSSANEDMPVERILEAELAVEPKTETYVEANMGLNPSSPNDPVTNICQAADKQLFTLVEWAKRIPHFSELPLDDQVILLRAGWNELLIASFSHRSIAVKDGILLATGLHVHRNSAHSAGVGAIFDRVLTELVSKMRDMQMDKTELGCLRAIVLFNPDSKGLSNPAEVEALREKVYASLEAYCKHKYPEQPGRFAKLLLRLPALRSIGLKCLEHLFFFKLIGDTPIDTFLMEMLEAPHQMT
# Assay: In Vitro FXR Assay (TK): TK-ECRE-luc reporter in transfected CV-1 cells
# Format: cell-based
# Conditions: CV-1 cells transfected with hFXR, hRXR, pCMX-YFP, 18 hrs incubation, luminescence
# Summary of the method: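 Reporter gene assay: CV-1 cells co-expressing hFXR, hRXR, TK-ECRE-luc and pCMX-YFP after overnight transfection in charcoal-stripped serum. Treatment with serially diluted compounds lasted 18 hrs at 37 °C, followed by cell lysis and a luminescence measurement.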
row,Structure (SMILES),pEC50
1,"COc1ccc(C23CCC(CN(c4cc(-c5cnn(C(C)(C)C)c5)ccn4)C(=O)[C@H]4CC[C@H](OC(=O)N5CCC(O)C5)CC4)(CC2)CC3)cc1C (stereo partly drawn) [Compound 3.03, 4-((4-(1-(tert-Butyl)-1H-pyrazol-4-yl)pyridin-2-yl)((4-(4-methoxy-3-methylphenyl)bicyclo[2.2.2]octan-1-yl)methyl)carbamoyl) (trans-cyclohexyl) 3-hydroxypyrrolidine-1-carboxylate]",≥ 8.00
2,"COc1ccc(C23CCC(CN(c4cc(-c5cnc(C(C)(C)C)s5)ccn4)C(=O)[C@H]4CC[C@H](OC(=O)NCCO)CC4)(CC2)CC3)cc1C [Compound 2.06, 4-((4-(2-(tert-Butyl)thiazol-5-yl)pyridin-2-yl)((4-(4-methoxy-3-methylphenyl)bicyclo[2.2.2]octan-1-yl)methyl)carbamoyl)cyclohexyl (2-hydroxyethyl)trans-carbamate]",≥ 8.00
3,"CCC(C)(C)n1cc(-c2ccnc(N(CC34CCC(c5ccc(OC)c(C)c5)(CC3)CC4)C(=O)[C@H]3CC[C@H](OC(=O)N4CCC(O)CC4)CC3)c2)cn1 [Compound 4.02, 4-(((4-(4-Methoxy-3-methylphenyl)bicyclo[2.2.2]octan-1-yl)methyl)(4-(1-(tert-pentyl)-1H-pyrazol-4-yl)pyridin-2-yl)carbamoyl) cyclohexyl trans-4-hydroxypiperidine-1-carboxylate]",≥ 8.00
4,"COc1ccc([C@H]2CC[C@H](CN(c3cc(-c4cnn(C(C)(C)C)c4)ccn3)C(=O)[C@H]3CC[C@H](OC(=O)N4CC(O)C4)CC3)CC2)cc1C [Compound 1.08, trans-4-((4-(1-(tert-Butyl)-1H-pyrazol-4-yl)pyridin-2-yl)((trans-4-(4-methoxy-3-methylphenyl)cyclohexyl)methyl)carbamoyl) cyclohexyl 3-hydroxyazetidine-1-carboxylate]",6.00 to 8.00
